In patent US12145920B2, “Lanthionine c-like protein 2 ligands, cells prepared therewith, and therapies using same” (NImmune Biopharma, Inc., priority 2019, dated 2024):
Entries after “also recorded” stand apart in the source; their conditions may differ.

What was measured:
[1] = Pharmacokinetics after oral dosing in mice, plasma LC-MS/MS; assay type: in vivo, C57BL/6 mice; parameters: exposure: unit not given here
Procedure: C57BL/6 mice were dosed orally with 10 and 40 mg/kg of BT-63 by oral gavage of methylcellulose solution containing BT-63. After gavage, blood was collected at 0.5, 1, 2, 4, 6, 8, 12 and 24 hours after treatment. Plasma was collected from blood by centrifugation. BT-63 was extracted from plasma and quantified by LC-MS/MS.

CD4+ T cells = assay: Immune effects in CD4+ splenocytes, flow cytometry (wild type); assay type: cell-based, C57BL/6 mice
Text: Cell culture. Spleens were excised from C57BL/6 mice and assessed in wild-type and LANCL2 deficient states. Spleens were crushed between the frosted ends of microscope slides and filtered to provide a cellular suspension. Red blood cells were lysed through hypotonic lysis. Remaining cells were washed and filtered. CD4+ T cells were enriched within the suspension using magnetic sorting based negative selection. Cells were collected and plated within 96 well plates coated with anti-CD3 and cultured in the presence of BT-63 at 0, 0.1, 1 and 10 micromolar or BT-104A, BT-104B, or BT-104C at 0.1 micromolar for 48 h. During the last 6 h of culture, cells were stimulated with phorbol 12-myristate-13-acetate (PMA) and ionomycin.
Immunological analysis. Cells were collected from 96 well plates and stained with a cocktail of antibodies for immunophenotyping by flow cytometry. Culture supernatant was collected and assayed for cytokine concentrations by cytometric bead array. Data was captured on a BD FACS Celesta and analyzed using FacsDiva.

[2] = tested on: Non-obese diabetic (NOD) ShiLt mice; assay: NOD mouse model of T1D; assay type: in vivo
Procedure: NOD model. Non-obese diabetic (NOD) ShiLt mice were used in this study. NOD mice have numerous genetic mutations that enable the spontaneous onset of hyperglycemia and pancreatic pathologies associated with T1D. Mice entered into the experiment at 9 weeks of age and were monitored for a […]. Mice were treated daily with vehicle, 10 mg/kg BT-63, or 20 mg/kg BT-63 by oral gavage. Once weekly blood samples were collected from the tail vein to be tested for glucose concentration by glucometer. Mice were euthanized after 12 weeks for collection of blood and organs for immunological testing.
(§1) Treatment administration. BT-63 was prepared within a 0.5% methylcellulose (12-15 cP) solution. Dosage used was 10 or 20 mg/kg delivered once daily. Mice were weighed on a weekly basis to update dosage formulation. Dosage was calculated based off mean body weights for each gender. Oral dosage was delivered by orogastric gavage of dosage in 0.2 mL volume.
Immunological analysis. Blood was collected by cardiac puncture into heparinized tube. Plasma was separated following centrifugation and assayed by Luminex for cytokine and hormones related to the development of T1D. Spleens were excised, crushed and filtered to provide a cellular suspension. Red blood cells were lysed. Cells were labeled with mixtures of extracellular (CD45, CD3, CD4, CD8, CD19, NK1.1, CD25, F4/80, CD11b, Gr1, CX3CR1, CD64) and intracellular (Tbet, BCL6, FOXP3, IFNγ, IL21, IL10) antibodies in a sequential live staining in 96-well plates in preparation for flow cytometry. Data was captured on a BD FACS Celesta and analyzed using FacsDiva.

MDR1a-/- mice = assay: MDR1a-/- chronic model of IBD; assay type: in vivo
Procedure: as §1, with “MDR1a−/− model. Mice deficient in MDR1a spontaneously develop colitis. MDR1a−/− began receiving BT-63 treatment (oral, 20 mg/kg) at 6 weeks of age and continued treatment until 10 weeks of age. Mice were weighed and scored weekly. Treatment” for “Treatment”, “was” for “was 10 or”, “volume. Flow Cytometry. […]” for “volume.”
collagenase (300U/mL) and DNase (50U/mL) for digestion. Tissues were digested for 60 minutes under stirring at 37° C. Resultant cellular suspensions were filtered through 100 μm strainers, centrifuged (300×g, 8 min), and washed in fresh RPMI. Following filtration of the resulting single cell suspensions, immune cells were purified by Percoll gradient of cell-containing 40% Percoll overlayed onto 70% Percoll solution. After centrifugation, interphase was collected and washed to obtain enriched colonic lamina propria cell fractions. Cells were labeled with mixtures of extracellular (CD45, CD3, CD4, CD8, CD19, NK1.1, CD25, F4/80, CD11b, Gr1, CX3CR1, CD64) and intracellular (Tbet, RORyT, FOXP3, IFNγ, IL17, IL10) antibodies in a sequential live staining in 96-well plates. Data was acquired using a FACS Celesta flow cytometer with FACSDiva software.

[3] = tested on: colonic CD4+ T cells from Mdr1a-/- mice; assay: Gene expression in colonic CD4+ T cells of treated Mdr1a-/- mice; assay type: in vivo; conditions: oral treatment, 10 weeks of age
Text: To identify signaling pathways modulated by BT-63 in vivo, we will isolate colonic CD4+ T cells from vehicle- and BT-63-treated Mdr1a−/− mice at presentation of colitis at 10 weeks of age. […] Meanwhile, expression of Pten and Ph1pp1 will increase. […] Cells will also be differentiated in the presence of inhibitors for PTEN (SF1670) or STATS (STAT5i). In the Treg differentiation media containing both IL-2 or IL-12, the addition of STAT5i will prevent the effects of BT-63 on CD25+ FOXP3+ and CD25+ Tbet+ cells. In contrast, SF1670 only will prevent effects of BT-63 on CD25+ Tbet+ cells in IL-2 containing media.

[4] = wild-type cells, 0.1, 1 and 10 μM, 48 h
[5] = 21 weeks of age, oral 10 or 20 mg/kg
[6] = spleen, 21 weeks of age, oral 10 or 20 mg/kg
[7] = colonic lamina propria, four weeks oral 20 mg/kg
[8] = spleen, four weeks oral 20 mg/kg

## O=C(CN1CCN(C(=O)c2cccc(-c3nc4ccccc4[nH]3)n2)CC1)c1ccccc1 [BT-63, 2-(4-(6-(1H-benzo[d]imidazol-2-yl)picolinoyl)piperazin-1-yl)-1-phenylethanone]
[1]; equal oral doses (10 mg/kg)
  increase in maximum plasma concentration compared to BT-11: > 100 fold
[1]; oral 10 mg/kg
  area under the curve exposure: 1055 ng·h/mL
  maximum plasma concentration: 585 ng/mL
[1]; oral 40 mg/kg
  exposure: 11552
  maximum plasma concentration: 4465 ng/mL
CD4+ T cells; 0.1, 1 and 10 micromolar, FIG. 4A
  FOXP3+ CD4+ T cells: significant increase
CD4+ T cells; [4]
  proportions of IFNγ+ CD4+ T cells: reduced; also recorded: significant decrease
  proportions of IL10+ FOXP3+ CD4+ T cells: increased
  proportions of TNFa-producing CD4+ T cells: reduced
[2]; 20 mg/kg group compared to vehicle
  reduction of percentage of hyperglycemic mice: 50%
[2]; 21 weeks of age, 10 mg/kg
  HbA1c: reduced
[2]; 21 weeks of age, 20 mg/kg
  HbA1c: reduced
[2]; [5]
  plasma MCP-1: reduced
  plasma TNF: reduced
  plasma levels of C-peptide: increased
  plasma levels of insulin: increased
[2]; NOD mice, oral daily, from 19 weeks of age through end
  blood glucose levels: significantly lower
[2]; [6]
  CD4+IL10+ to CD4+IFNγ+ ratio: increased
  PD1+ CD4+ T cells: increasing
  T follicular helper (Tfh) cells (BCL6+IL21+): decreasing
MDR1a-/- mice; colon, four weeks oral 20 mg/kg
  proportions of regulatory CD4+ CD25+ T cells: increased
MDR1a-/- mice; [7]
  proportions of Th1: reduces
  proportions of Th17: reduces
  proportions of neutrophils: reduces
MDR1a-/- mice; [8]
  splenic CD25+ Tregs: increased
  splenic Th1 cells: decreased
MDR1a-/- mice; week four of treatment, oral 20 mg/kg
  maximal observed reduction of disease activity: 90%
[3]
  expression of Foxo1: significantly higher expression
  expression of Ph1pp1: increase
  expression of Pten: increase
  expression of Stat5a: significantly higher expression
